Measured values published in ChEMBL document CHEMBL1201862, “PubChem BioAssay data set” (2004).
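Method: 48-hour compound exposure of cells in 96-well plates, five concentrations, linear interpolation of endpoints. The concentration for 50% growth inhibition is given as GI50.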 The source made the active and inactive calls. Cut-off read from the data, not from the text of the source: active = GI50 up to about 1.1 µM and inactive = higher.

Tests used:
Assay in all cases: DTP human tumour cell line panel, 48 h
SNB-75 = tested on: SNB-75
K562 = tested on: K562
LOX IMVI = tested on: LOX IMVI
TK-10 = tested on: TK-10
ACHN = tested on: ACHN
Malme-3M = tested on: Malme-3M
NCI-H23 = tested on: NCI-H23
NCI-H460 = tested on: NCI-H460
KM12 = tested on: KM12
NCI-H226 = tested on: NCI-H226
SK-OV-3 = tested on: SK-OV-3
786-0 = tested on: 786-0
U-251 = tested on: U-251
IGROV-1 = tested on: IGROV-1
OVCAR-4 = tested on: OVCAR-4
OVCAR-8 = tested on: OVCAR-8
SR = tested on: SR
UACC-62 = tested on: UACC-62
SF-295 = tested on: SF-295

Measured: GI50

CN1C(=S)CSc2ccccc21
inactive: SNB-75 42.9 µM | K562 > 100 µM | LOX IMVI > 100 µM | TK-10 > 100 µM | ACHN > 100 µM | Malme-3M > 100 µM | NCI-H23 > 100 µM | NCI-H460 > 100 µM | KM12 > 100 µM | NCI-H226 89.1 µM | SK-OV-3 > 100 µM | 786-0 > 100 µM | U-251 > 100 µM | IGROV-1 > 100 µM | OVCAR-4 > 100 µM | OVCAR-8 > 100 µM | SR > 100 µM

Oc1cc(-c2ccccn2)nc2cc(F)ccc12
inactive: SNB-75 26.5 µM | K562 44.9 µM | LOX IMVI 71 µM | TK-10 > 100 µM | ACHN > 100 µM | UACC-62 55.8 µM | SF-295 > 100 µM | Malme-3M 90.2 µM | NCI-H23 > 100 µM | NCI-H460 38.7 µM | KM12 36.1 µM | NCI-H226 > 100 µM | SK-OV-3 > 100 µM | 786-0 > 100 µM | IGROV-1 > 100 µM | OVCAR-4 > 100 µM | OVCAR-8 > 100 µM | SR 18.9 µM

O=C(c1ccccc1)c1c(CC(O)c2ccccc2)n(C(=O)c2ccccc2)c2ccccc12 (stereo not given)
inactive: SNB-75 6.97 µM | K562 27.9 µM | TK-10 > 100 µM | ACHN 34.4 µM | UACC-62 46.3 µM | SF-295 28.8 µM | Malme-3M 56.2 µM | NCI-H23 19 µM | NCI-H460 30.1 µM | KM12 32 µM | NCI-H226 31.6 µM | 786-0 > 100 µM | U-251 36.1 µM | IGROV-1 42.6 µM | OVCAR-4 35.5 µM | OVCAR-8 57.7 µM | SR 16.9 µM

CN(C)c1ccc(/C=C2\Oc3ccccc3C2=O)cc1
inactive: SNB-75 > 100 µM | K562 21.5 µM | TK-10 > 100 µM | ACHN > 100 µM | UACC-62 > 100 µM | SF-295 > 100 µM | NCI-H23 > 100 µM | NCI-H460 > 100 µM | KM12 > 100 µM | NCI-H226 > 100 µM | SK-OV-3 > 100 µM | 786-0 > 100 µM | U-251 > 100 µM | IGROV-1 > 100 µM | OVCAR-4 > 100 µM | OVCAR-8 > 100 µM | SR 31 µM

Cc1nnc2nc(-c3ccc(Cl)cc3Cl)cc(-c3ccc(Cl)cc3)n12
inactive: K562 50.4 µM | LOX IMVI > 100 µM | TK-10 > 100 µM | ACHN > 100 µM | UACC-62 > 100 µM | SF-295 91.4 µM | Malme-3M > 100 µM | NCI-H23 > 100 µM | NCI-H460 82.6 µM | KM12 > 100 µM | NCI-H226 > 100 µM | SK-OV-3 > 100 µM | 786-0 > 100 µM | U-251 > 100 µM | OVCAR-4 23.3 µM | OVCAR-8 > 100 µM | SR > 100 µM

CC(NO)/C(=N/O)c1ccco1 (stereo not given)
inactive: K562 > 10 µM | TK-10 > 10 µM | ACHN > 10 µM | SF-295 > 10 µM | Malme-3M > 10 µM | NCI-H23 > 10 µM | NCI-H460 > 10 µM | KM12 > 10 µM | NCI-H226 > 10 µM | 786-0 > 10 µM | U-251 > 10 µM | OVCAR-4 > 10 µM | OVCAR-8 > 10 µM | SR > 10 µM
